Tested on: 699152-130-R-J1-PDC complex spheroid viability
Test: Anticancer human tumor 699152-130-R-J1-PDC patient-derived pancreatic carcinoma cell line growth inhibition [POLQ]
Conditions: for IC50: curve of first compound; for viability, T/C: stronger effect = lower value
Outline: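 PDC + HUVEC + MSC complex spheroids; POLQ inhibitors ± partner drugs; top conc. at/near clinical Cmax, else 10 microM (SN-38 1 microM), half-log dilutions; 37 degrees C, 5% CO2.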

[1] = second compound 0.0316 µM, first compound 0.0316 µM
[2] = second compound 0.0316 µM, first compound 0.1 µM
[3] = second compound 0.1 µM, first compound 0.0316 µM
[4] = second compound 0.1 µM, first compound 0.1 µM
[5] = second compound 0.316 µM, first compound 0.0316 µM
[6] = second compound 0.316 µM, first compound 0.1 µM
[7] = second compound 1 µM, first compound 0.0316 µM
[8] = second compound 1 µM, first compound 0.1 µM
[9] = second compound 3.16 µM, first compound 0.0316 µM
[10] = second compound 3.16 µM, first compound 0.1 µM
[11] = second compound 10 µM, first compound 0.0316 µM
[12] = second compound 10 µM, first compound 0.1 µM
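Also: spheroids exposed to agents for 7 days before viability reading.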
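For viability, T/C in this document: percent of DMSO vehicle control viability so 100% = vehicle and 0% = no viable signal.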

Compound: Cn1ncnc1[C@H]1c2n[nH]c(=O)c3cc(F)cc(c23)N[C@@H]1c1ccc(F)cc1 + Nc1ccc(C#CCN(C(=O)Cc2ncc(C(F)(F)F)cc2C(F)(F)F)c2ccc(F)cc2)nn1
- IC50 (second compound 0.0316 µM): > 0.1 µM
- IC50 (second compound 0.1 µM): > 0.1 µM
- IC50 (second compound 0.316 µM): > 0.1 µM
- IC50 (second compound 1 µM): > 0.1 µM
- IC50 (second compound 3.16 µM): > 0.1 µM
- IC50 (second compound 10 µM): > 0.1 µM
- viability, T/C (second compound 0.0316 µM, first compound 0.000316 µM): 102%
- viability, T/C (second compound 0.0316 µM, first compound 0.001 µM): 86.8%
- viability, T/C (second compound 0.0316 µM, first compound 0.00316 µM): 89.6%
- viability, T/C (second compound 0.0316 µM, first compound 0.01 µM): 97.1%
- viability, T/C [1]: 87%
- viability, T/C [2]: 82.2%
- viability, T/C (second compound 0.1 µM, first compound 0.000316 µM): 106%
- viability, T/C (second compound 0.1 µM, first compound 0.001 µM): 89.1%
- viability, T/C (second compound 0.1 µM, first compound 0.00316 µM): 87.5%
- viability, T/C (second compound 0.1 µM, first compound 0.01 µM): 101%
- viability, T/C [3]: 96%
- viability, T/C [4]: 82.8%
- viability, T/C (second compound 0.316 µM, first compound 0.000316 µM): 102%
- viability, T/C (second compound 0.316 µM, first compound 0.001 µM): 91.6%
- viability, T/C (second compound 0.316 µM, first compound 0.00316 µM): 103%
- viability, T/C (second compound 0.316 µM, first compound 0.01 µM): 85.4%
- viability, T/C [5]: 92.6%
- viability, T/C [6]: 77.5%
- viability, T/C (second compound 1 µM, first compound 0.000316 µM): 102%
- viability, T/C (second compound 1 µM, first compound 0.001 µM): 102%
- viability, T/C (second compound 1 µM, first compound 0.00316 µM): 89.4%
- viability, T/C (second compound 1 µM, first compound 0.01 µM): 98.8%
- viability, T/C [7]: 104%
- viability, T/C [8]: 76.5%
- viability, T/C (second compound 3.16 µM, first compound 0.000316 µM): 90.7%
- viability, T/C (second compound 3.16 µM, first compound 0.001 µM): 98%
- viability, T/C (second compound 3.16 µM, first compound 0.00316 µM): 105%
- viability, T/C (second compound 3.16 µM, first compound 0.01 µM): 94.7%
- viability, T/C [9]: 91.7%
- viability, T/C [10]: 89.5%
- viability, T/C (second compound 10 µM, first compound 0.000316 µM): 103%
- viability, T/C (second compound 10 µM, first compound 0.001 µM): 106%
- viability, T/C (second compound 10 µM, first compound 0.00316 µM): 108%
- viability, T/C (second compound 10 µM, first compound 0.01 µM): 95.2%
- viability, T/C [11]: 101%
- viability, T/C [12]: 99.6%

Compound: COc1cc2cc(C(=O)CCC(=O)O)sc2cc1OC + Nc1ccc(C#CCN(C(=O)Cc2ncc(C(F)(F)F)cc2C(F)(F)F)c2ccc(F)cc2)nn1
- IC50 (second compound 0.0316 µM): > 10 µM
- IC50 (second compound 0.1 µM): > 10 µM
- IC50 (second compound 0.316 µM): > 10 µM
- IC50 (second compound 1 µM): > 10 µM
- IC50 (second compound 3.16 µM): > 10 µM
- IC50 (second compound 10 µM): > 10 µM
- viability, T/C [1]: 88.3%
- viability, T/C [2]: 94%
- viability, T/C (second compound 0.0316 µM, first compound 0.316 µM): 90.2%
- viability, T/C (second compound 0.0316 µM, first compound 1 µM): 98.3%
- viability, T/C (second compound 0.0316 µM, first compound 3.16 µM): 102%
- viability, T/C (second compound 0.0316 µM, first compound 10 µM): 88.9%
- viability, T/C [3]: 99%
- viability, T/C [4]: 93.8%
- viability, T/C (second compound 0.1 µM, first compound 0.316 µM): 95.5%
- viability, T/C (second compound 0.1 µM, first compound 1 µM): 110%
- viability, T/C (second compound 0.1 µM, first compound 3.16 µM): 107%
- viability, T/C (second compound 0.1 µM, first compound 10 µM): 106%
- viability, T/C [5]: 104%
- viability, T/C [6]: 97.3%
- viability, T/C (second compound 0.316 µM, first compound 0.316 µM): 90.3%
- viability, T/C (second compound 0.316 µM, first compound 1 µM): 105%
- viability, T/C (second compound 0.316 µM, first compound 3.16 µM): 105%
- viability, T/C (second compound 0.316 µM, first compound 10 µM): 104%
- viability, T/C [7]: 102%
- viability, T/C [8]: 94.2%
- viability, T/C (second compound 1 µM, first compound 0.316 µM): 133%
- viability, T/C (second compound 1 µM, first compound 1 µM): 96.9%
- viability, T/C (second compound 1 µM, first compound 3.16 µM): 110%
- viability, T/C (second compound 1 µM, first compound 10 µM): 97.8%
- viability, T/C [9]: 119%
- viability, T/C [10]: 122%
- viability, T/C (second compound 3.16 µM, first compound 0.316 µM): 104%
- viability, T/C (second compound 3.16 µM, first compound 1 µM): 102%
- viability, T/C (second compound 3.16 µM, first compound 3.16 µM): 91.8%
- viability, T/C (second compound 3.16 µM, first compound 10 µM): 102%
- viability, T/C [11]: 114%
- viability, T/C [12]: 124%
- viability, T/C (second compound 10 µM, first compound 0.316 µM): 121%
- viability, T/C (second compound 10 µM, first compound 1 µM): 111%
- viability, T/C (second compound 10 µM, first compound 3.16 µM): 112%
- viability, T/C (second compound 10 µM, first compound 10 µM): 109%
